Experimental data from patent publication US20250090699A1, “FAP TARGETING CYCLIC PEPTIDES AND CONJUGATES THEREOF” (Novartis AG, priority 2023, published 2025).
pIC50, pKd: −log10 of the molar value. Counter-ions that a name gives are not always drawn. Starred links: 1 amine or outer side, 2 acyl side, 3 side chain; linkers in the order of their positions; H or OH if unused. Non-standard residues stand in square brackets, D forms with d. Residues, ends and D or L forms follow the SMILES beside them. Groups on a side chain read outwards from the residue. *: point of attachment. F(4amPEG2NHDOTA-Ga) = gallium complex of (S)-2,2',2''-(10-(1-(4-(2-amino-2-carboxyethyl)phenyl)-3,12-dioxo-5,8-dioxa-2,11-diazatridecan-13-yl)-1,4,7,10-tetraazacyclododecane-1,4,7-triyl)triacetic acid (Phe with 4-aminomethyl-PEG2-DOTA-Ga), O=C([O-])CN1CCN(CC(=O)[O-])CCN(CC(=O)NCCOCCOCC(=O)NCc2ccc(C[C@H](N[*:1])C(=O)[*:2])cc2)CCN(CC(=O)[O-])CC1.[Ga+3]; F4(amGlyDOTALu) = lutetium complex of (S)-2,2',2''-(10-(2-((2-((4-(2-amino-2-carboxyethyl)benzyl)amino)-2-oxoethyl)amino)-2-oxoethyl)-1,4,7,10-tetraazacyclododecane-1,4,7-triyl)triacetic acid (Phe with 4-aminomethyl-Gly-DOTA-Lu), O=C([O-])CN1CCN(CC(=O)[O-])CCN(CC(=O)NCC(=O)NCc2ccc(C[C@H](N[*:1])C(=O)[*:2])cc2)CCN(CC(=O)[O-])CC1.[Lu+3]; F(4OEtNHDOTA-Lu) = lutetium complex of (S)-2,2',2''-(10-(2-((2-(4-(2-amino-2-carboxyethyl)phenoxy)ethyl)amino)-2-oxoethyl)-1,4,7,10-tetraazacyclododecane-1,4,7-triyl)triacetic acid (Phe with 4-O-ethylamino-DOTA-Lu), O=C([O-])CN1CCN(CC(=O)[O-])CCN(CC(=O)NCCOc2ccc(C[C@H](N[*:1])C(=O)[*:2])cc2)CCN(CC(=O)[O-])CC1.[Lu+3]; K(COpipzaa) = N6-(4-(carboxymethyl)piperazine-1-carbonyl)-L-lysine, O=C(NCCCC[C@H](N[*:1])C(=O)[*:2])N1CCN(CC(=O)[*:3])CC1; hS(Pr) = O-propyl-L-homoserine, CCCOCC[C@H](N[*:1])C(=O)[*:2]; Pyrrolidine(2S-CN,4,4-F2) = N#C[C@@H]1CC(F)(F)CN1*; Piperazinyl(4-CH2COOH) = O=C(O)CN1CCN(*)CC1; AEF = NCCOc1ccc(C[C@H](N)C(=O)O)cc1; X10 = O=C([C@H]1COCCN1[*:1])[*:2]; NMeF = CN[C@@H](Cc1ccccc1)C(=O)O; dHyp = O=C(O)[C@H]1C[C@H](O)CN1; Ahp(2) = CCCCC[C@H](N)C(=O)O; CO = O=C([*:1])[*:2]

How the values were obtained:
mouse FAP [1] = target: T1, mouse FAP (Mus musculus, UniProt P97321); experiment: Enzymatic FAP competition assay (Z-Gly-Pro-AMC fluorescence), mouse FAP; format: biochemical; details: read-out: m. FAP, Enz., IC50
T1 construct: biotinylated His, Avi tag, mouse FAP (26-761, FAP-M82Q5); His; Avi tag (biotinylated); purchased AcroBiosystems FAP-M82Q5
T1 sequence (P97321 26-761): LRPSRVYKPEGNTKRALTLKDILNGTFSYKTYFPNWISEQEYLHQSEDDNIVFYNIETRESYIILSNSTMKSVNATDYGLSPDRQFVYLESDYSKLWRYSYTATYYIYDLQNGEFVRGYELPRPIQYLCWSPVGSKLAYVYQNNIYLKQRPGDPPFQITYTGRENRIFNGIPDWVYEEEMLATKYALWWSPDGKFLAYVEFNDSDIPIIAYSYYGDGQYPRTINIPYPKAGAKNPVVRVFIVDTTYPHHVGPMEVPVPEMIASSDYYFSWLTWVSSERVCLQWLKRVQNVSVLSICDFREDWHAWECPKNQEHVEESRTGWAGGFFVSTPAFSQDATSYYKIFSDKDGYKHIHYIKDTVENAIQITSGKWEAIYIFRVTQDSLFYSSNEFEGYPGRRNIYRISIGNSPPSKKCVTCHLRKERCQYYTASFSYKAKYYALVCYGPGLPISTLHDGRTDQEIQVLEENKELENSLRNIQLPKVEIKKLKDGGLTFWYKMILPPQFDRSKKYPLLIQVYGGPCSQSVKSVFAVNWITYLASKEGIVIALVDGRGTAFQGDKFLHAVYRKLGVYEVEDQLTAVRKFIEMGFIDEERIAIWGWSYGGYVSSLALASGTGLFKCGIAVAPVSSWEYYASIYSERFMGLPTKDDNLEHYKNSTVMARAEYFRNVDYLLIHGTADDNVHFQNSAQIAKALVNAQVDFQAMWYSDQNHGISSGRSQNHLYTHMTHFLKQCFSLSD
In short: (§1)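 Biotinylated His/Avi-tagged FAP ectodomain (human 26-760, mouse 26-761) at 0.01 nM, preincubated 24 h with peptides (14 concentrations, up to 1 μM) in pH 7.5 phosphate, 150 mM NaCl, 0.05% Tween20, 1% DMSO. Then 50 μM Z-Gly-Pro-AMC, 4 h at 22-24° C; AMC fluorescence (380/460 nm) gave IC50 from duplicate points.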

mouse FAP [2] = target: T1, mouse FAP; experiment: Surface plasmon resonance (SPR) for peptide affinity, mouse FAP; format: binding
In short: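 Biotinylated His/Avi-tagged FAP ectodomains (human 26-760, mouse 26-761) captured or immobilized on Biacore sensor chips; peptides run at 25 °C in HBS-EP+ pH 7.6 with 2% DMSO, single-cycle kinetics, 8 concentrations. KD from 1:1 binding-model fit of sensorgrams.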

human FAP = target: T2, human FAP (Homo sapiens, UniProt Q12884); experiment: Enzymatic FAP competition assay (Z-Gly-Pro-AMC fluorescence), human FAP; format: biochemical; details: read-out: h. FAP, Enz., IC50
T2 construct: the biotinylated His, Avi tag, human FAP (26-760, FAP-H82Q6); His; Avi tag (biotinylated); purchased AcroBiosystems FAP-H82Q6
T2 sequence (Q12884 26-760): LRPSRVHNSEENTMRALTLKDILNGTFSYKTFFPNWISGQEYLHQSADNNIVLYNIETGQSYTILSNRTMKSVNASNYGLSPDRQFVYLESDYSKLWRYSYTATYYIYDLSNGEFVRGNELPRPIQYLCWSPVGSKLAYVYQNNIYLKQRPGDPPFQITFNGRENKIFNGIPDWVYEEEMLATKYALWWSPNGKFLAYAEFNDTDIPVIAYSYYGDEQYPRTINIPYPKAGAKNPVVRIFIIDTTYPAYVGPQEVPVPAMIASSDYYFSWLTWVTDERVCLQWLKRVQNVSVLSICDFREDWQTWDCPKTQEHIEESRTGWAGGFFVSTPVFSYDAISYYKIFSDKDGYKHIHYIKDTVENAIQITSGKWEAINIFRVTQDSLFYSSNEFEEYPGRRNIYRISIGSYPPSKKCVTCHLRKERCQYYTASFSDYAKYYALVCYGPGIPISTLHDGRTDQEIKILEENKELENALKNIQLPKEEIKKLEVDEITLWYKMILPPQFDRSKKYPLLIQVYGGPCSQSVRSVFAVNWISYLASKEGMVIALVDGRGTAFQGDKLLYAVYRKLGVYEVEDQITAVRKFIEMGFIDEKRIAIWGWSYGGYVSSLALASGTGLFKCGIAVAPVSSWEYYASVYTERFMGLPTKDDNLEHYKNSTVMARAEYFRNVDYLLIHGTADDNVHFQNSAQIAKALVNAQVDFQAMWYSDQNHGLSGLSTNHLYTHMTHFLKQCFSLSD
In short: as §1

| pIC50 (mouse FAP [1]) | pKd (mouse FAP [2]) | pIC50 (human FAP) | Compound |
| --- | --- | --- | --- |
| 9.31 | 9.42 | 9.87 | CCCCC[C@@H]1NC(=O)[C@H](Cc2ccc(OCCN)cc2)NC(=O)[C@H](Cc2ccccc2)N(C)C(=O)CNC(=O)CNC(=O)[C@H]2CCCN2C(=O)[C@H](CC(=O)O)NC(=O)[C@H](Cc2ccc(O)cc2)NC(=O)CNC(=O)[C@H](Cc2c[nH]c3ccccc23)NC1=O [Example A59, Gly-Gly-NMePhe-F(4OEtNH2)-Ahp-Trp-Gly-Tyr-Asp-D-Pro, TFA salt] (cyclo([AEF][Ahp(2)]WGYD[dP]GG[NMeF])) |
| 8.28 | 7.92 | 8.66 | CCCCC[C@@H]1NC(=O)[C@H](Cc2ccc(O)cc2)NC(=O)[C@H](Cc2ccccc2)N(C)C(=O)CNC(=O)[C@H](CCCCN)NC(=O)[C@H]2C[C@H](O)CN2C(=O)[C@H](CC(=O)O)NC(=O)[C@H](Cc2ccc(O)cc2)NC(=O)CNC(=O)[C@H](Cc2c[nH]c3ccccc23)NC1=O [Example A41, Lys-Gly-NMePhe-Tyr-Ahp-Trp-Gly-Tyr-Asp-D-trans4hyp, TFA salt] (cyclo([Ahp(2)]WGYD[dHyp]KG[NMeF]Y)) |
| 10.09 | 10.36 | 10.23 | CN1C(=O)CNC(=O)[C@H](CCCCN)NC(=O)[C@H]2CCCN2C(=O)[C@H](CC(=O)O)NC(=O)[C@H](Cc2ccc(O)cc2)NC(=O)CNC(=O)[C@H](Cc2c[nH]c3ccccc23)NC(=O)[C@H](CCC(=O)N2CC(F)(F)C[C@H]2C#N)NC(=O)[C@H](Cc2ccc(O)cc2)NC(=O)[C@@H]1Cc1ccccc1 [Example A29, Lys-Gly-NMePhe-Tyr-Q(Pyrro(2CN4F2))-Trp-Gly-Tyr-Asp-D-Pro] (cyclo(KG[NMeF]YE(Pyrrolidine(2S-CN,4,4-F2))WGYD[dP])) |
| 9.75 | 9.73 | 10.15 | CCCCC[C@@H]1NC(=O)[C@H](Cc2ccc(OCCN)cc2)NC(=O)[C@H](Cc2ccccc2)N(C)C(=O)CNC(=O)CNC(=O)[C@H]2CCCN2C(=O)[C@H](CC(=O)O)NC(=O)[C@H](CCCCNC(=O)N2CCN(CC(=O)O)CC2)NC(=O)CNC(=O)[C@H](Cc2c[nH]c3ccccc23)NC1=O [Example A6, 2-((9S,12S,15S,18S,24S,27S,32aR)-18-((1H-indol-3-yl)methyl)-12-(4-(2-aminoethoxy)benzyl)-9-benzyl-24-(4-(4-(carboxymethyl)piperazine-1-carboxamido)butyl)-8-methyl-1,4,7,10,13,16,19,22,25,28-decaoxo-15-pentyldotriacontahydropyrrolo[1,2-a][1,4,7,10,13,16,19,22,25,28]decaazacyclotriacontin-27-yl)acetic acid TFA salt] (cyclo([AEF][Ahp(2)]WGK([CO-Piperazinyl(4-CH2COOH)])D[dP]GG[NMeF])) |
| 10.38 | > 10.66 | 10.77 | CCCCCC[C@@H]1NC(=O)[C@H](Cc2ccc(CNC(=O)COCCOCCNC(=S)Nc3ccc(CC4CN(CC(=O)O)CCN(CC(=O)O)CCN(CC(=O)O)CCN4CC(=O)O)cc3)cc2)NC(=O)[C@H](Cc2ccccc2)N(C)C(=O)CNC(=O)CNC(=O)[C@H]2CCCN2C(=O)[C@H](CC(=O)O)NC(=O)[C@H](CCCCNC(=O)N2CCN(CC(=O)O)CC2)NC(=O)CNC(=O)[C@H](Cc2c[nH]c3ccccc23)NC1=O (stereo partly drawn) [Example B37, Gly-Gly-NMePhe-F(4amPEG2NH-p-SCN-DOTA-Aoc-Trp-Gly-K(COpipzaa)-Asp-D-Pro] |
| 10.22 | > 10.64 | 10.72 | Glu-Gly-NMePhe-F(4amPEG2NHDOTA-Ga)-hS(Pr)-Trp-Gly-K(COpipzaa)-Asp-D-Pro (cyclo(EG[NMeF][F(4amPEG2NHDOTA-Ga)][hS(Pr)]WG[K(COpipzaa)]D[dP]); also: Ga complex of DOTA) [Example C45] |
| 10.62 | 10.49 | 11.00 | Gly-Gly-NMePhe-F4(amGlyDOTALu)-Ahp-Trp-Gly-Tyr-Asp-D-Pro (cyclo(GG[NMeF][F4(amGlyDOTALu)][Ahp(2)]WGYD[dP]); also: Lu complex) [Example C9] |
| 7.26 | 7.70 | 7.82 | CCCCC[C@@H]1NC(=O)[C@H](Cc2ccc(O)cc2)NC(=O)[C@H](Cc2ccccc2)N(C)C(=O)CNC(=O)CNC(=O)[C@H]2COCCN2C(=O)[C@H](CC(=O)O)NC(=O)[C@H](Cc2ccc(O)cc2)NC(=O)CNC(=O)[C@H](Cc2c[nH]c3ccccc23)NC1=O [Example A63, Gly-Gly-NMePhe-Tyr-Ahp-Trp-Gly-Tyr-Asp-Mor(3R-COOH)] (cyclo([Ahp(2)]WGYD[X10]GG[NMeF]Y)) |
| 9.33 | 9.65 | 9.92 | CCCCC[C@@H]1NC(=O)[C@H](Cc2ccc(O)cc2)NC(=O)[C@H](Cc2ccccc2)N(C)C(=O)CNC(=O)[C@@H](CO)NC(=O)[C@H]2CCCN2C(=O)[C@H](CC(=O)O)NC(=O)[C@H](Cc2ccc(O)cc2)NC(=O)CNC(=O)[C@H](Cc2c[nH]c3ccccc23)NC1=O [Example A69, D-Ser-Gly-NMePhe-Tyr-Ahp-Trp-Gly-Tyr-Asp-D-Pro] (cyclo([Ahp(2)]WGYD[dP][dS]G[NMeF]Y)) |
| 10.14 | 9.99 | 10.59 | Gly-Gly-NMePhe-F(4OEtNHDOTA-Lu)-Ahp-Trp-Gly-K(COpipzaa)-Asp-D-Pro (cyclo(GG[NMeF][F(4OEtNHDOTA-Lu)][Ahp(2)]WG[K(COpipzaa)]D[dP]); also: Lu complex of DOTA) [Example C27] |
